Assay: Pharmacokinetic analysis: apparent half-life of L-Dopa in rat plasma after dosing prodrug co-dosed with Benserazide
Format: in vivo
Settings: male Wistar rats, L-Dopa generated from prodrug
Experimental: The compound of the invention (I) and comparison compounds (II-VII) were tested in an assay which measures parameters relevant to the pharmacokinetic profile of the test compound. The assay measured the length of time L-dopa remained in the blood of test animals Naïve male Wistar rats (bodyweight=250-500 g) were used for the pharmacokinetic studies. Animals were fasted overnight. The compound of interest was dissolved in 0.9% saline and co-dosed with Benserazide (10 mg/kg) at a molecular weight equivalent dose to 12.5 mg/kg L-Dopa. Blood samples were taken via a butterfly needle located into the lateral tail vein and collected into sample tubes containing heparin as the anti-coagulant. Blood samples were centrifuged at 5000 rpm for 10 minutes; the supernatant plasma was removed and stored at −80° C. Stock solutions of 10 mM L-Dopa and Warfarin were prepared in 20% TFA, 10 mM sodium meta bisulphite and DMSO, respectively. […] Quantification of L-Dopa and Warfarin was achieved by monitoring the transitions of m/z=198.075/152.1 and […], respectively. The apparent half-life of the L-Dopa generated from the prodrugs was calculated from the terminal plasma samples using non compartment models of WinNonLin (Pharsight California USA) with no weighting.

With `COC(=O)[C@@H](N)Cc1ccc(OC(=O)CC(C)(C)C)c(OC(=O)CC(C)(C)C)c1.Cl` [I, (S)-2-[3,4-Bis-(3,3-dimethyl-butyryloxy)-phenyl]-1-methoxycarbonyl-ethyl-ammonium chloride] the “apparent half-life compared with structurally analogous comparison compounds” value was “significantly greater than the structurally analogous comparison compounds”.

Source: patent publication US8377986B2, “Amino acid derivatives” (Proximagen Ltd., priority 2007, dated 2013)
